In patent US20120202794A1 (priority 2011, published 2012):

Assays:
HCV Replicon 1b = assay: HCV inhibition assay, HCV replicon 1b (Clone A or ET-lunet cells; RT-PCR or luciferase reporter); format: cell-based; conditions: Hepatitis C virus, 96 h, HCV replicon 1b; 4 days incubation; read-out: Replicon 1b potency EC90
How it was run: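 Clone A (1500/well) or ET-lunet (3000/well) replicon cells treated with serially diluted compounds (0.5% DMSO, no G418) for 4 days at 37 °C. HCV RNA measured by one-step RT-PCR normalized to rRNA (ΔΔCt) or by luciferase luminescence versus DMSO controls; EC50/EC90 by curve fitting.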

[1] = Cell cytotoxicity assay (MTS), CC90 as reported in Table 1, cell line not stated; format: cell-based; conditions: human; MTS assay; 8 days incubation; cell line not given
How it was run: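 Compounds, serially diluted from 100 μM, were incubated 8 days at 37° C with Huh7, HepG2 or BxPC3 (2×10^3 cells/well) or CEM (5×10^3 cells/well). Viability was read by MTS, 2 h, absorbance 490 nm. CC90 (90% inhibition) was taken against untreated cells.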

| SMILES | EC90 (HCV Replicon 1b) | CC90 at 8 days [1] |
| --- | --- | --- |
| CC(C)C[C@H]1C(=O)N[C@@H](c2ccc(Cl)cc2)CN1C(=O)[C@@H]1C[C@H]1c1ccccc1 [Compound 360, (3S,6S)-6-(4-chlorophenyl)-3-isobutyl-4-((1R,2R)-2-phenylcyclopropanecarbonyl)-piperazin-2-one] | 3640 nM | > 10000 nM |
| Cc1ccccc1[C@H]1CN(C(=O)c2cc(-c3ccc(F)cc3)on2)[C@@H](CC(C)C)C(=O)N1 [Compound 361, (3S,6S)-4-(5-(4-fluorophenyl)isoxazole-3-carbonyl)-3-isobutyl-6-(o-tolyl)piperazin-2-one] | 1420 nM | > 10000 nM |
| Cc1ccccc1[C@H]1CN(C(=O)[C@@H]2C[C@H]2c2ccccc2)[C@@H](CC(C)C)C(=O)N1 [Compound 363, (3S,6S)-3-isobutyl-4-((1R,2R)-2-phenylcyclopropanecarbonyl)-6-(o-tolyl)piperazin-2-one] | 2070 nM | > 10000 nM |
| CC(C)C[C@H]1C(=O)N[C@@H](c2ccc(C(F)(F)F)cc2)CN1C(=O)[C@@H]1C[C@H]1c1ccccc1 [Compound 364, (3S,6S)-3-isobutyl-4-((1R,2R)-2-phenylcyclopropanecarbonyl)-6-(4-(trifluoro-methyl)phenyl)piperazin-2-one] | > 10000 nM | > 10000 nM |
| CC(C)C[C@H]1C(=O)N[C@@H](c2ccc(C(F)(F)F)cc2)CN1C(=O)c1cc(-c2ccc(F)cc2)on1 [Compound 366, (3S,6S)-4-(5-(4-fluorophenyl)isoxazole-3-carbonyl)-3-isobutyl-6-(4-(trifluoromethyl)-phenyl)piperazin-2-one] | 6000 nM | > 10000 nM |
| CC(C)C[C@H]1C(=O)N[C@@H](c2cccc(F)c2)CN1C(=O)c1cc(-c2ccc(F)cc2)on1 [Compound 367, (3S,6S)-6-(3-fluorophenyl)-4-(5-(4-fluorophenyl)isoxazole-3-carbonyl)-3-isobutylpiperazin-2-one] | 270 nM | > 10000 nM |
| CC(C)C[C@H]1C(=O)N[C@@H](c2cccc(F)c2)CN1C(=O)[C@@H]1C[C@H]1c1ccccc1 [Compound 369, (3S,6S)-6-(3-fluorophenyl)-3-isobutyl-4-((1R,2R)-2-phenylcyclopropanecarbonyl)-piperazin-2-one] | 1630 nM | > 10000 nM |
| CC(C)C[C@H]1C(=O)N[C@@H](c2ccccc2Cl)CN1C(=O)c1noc(-c2ccc(F)cc2)n1 [Compound 371, (3S,6S)-6-(2-chlorophenyl)-4-(5-(4-fluorophenyl)-1,2,4-oxadiazole-3-carbonyl)-3-isobutylpiperazin-2-one] | 470 nM | > 10000 nM |
| CC(C)C[C@H]1C(=O)N[C@@H](c2ccccc2F)CN1C(=O)c1cc(-c2ccc(F)cc2)no1 [Compound 372, (3S,6S)-6-(2-fluorophenyl)-4-(3-(4-fluorophenyl)isoxazole-5-carbonyl)-3-isobutylpiperazin-2-one] | 700 nM | > 10000 nM |
| CC(C)C[C@H]1C(=O)N[C@@H](c2ccccc2F)CN1C(=O)/C=C/c1ccc(F)cc1F [Compound 374, (3S,6S)-4-((E)-3-(2,4-difluorophenyl)acryloyl)-6-(2-fluorophenyl)-3-isobutylpipera-zin-2-one] | 750 nM | > 10000 nM |
| CC(C)C[C@H]1C(=O)N[C@@H](c2ccccc2)CN1C(=O)c1noc(-c2ccc(F)cc2)c1F [Compound 376, (3S,6S)-4-(4-fluoro-5-(4-fluorophenyl)isoxazole-3-carbonyl)-3-isobutyl-6-phenyl-piperazin-2-one] | 500 nM | > 10000 nM |
| CC(C)C[C@H]1CN(C(=O)c2noc(-c3ccc(F)cc3)c2F)[C@@H](CC(C)C)C(=O)N1 [Compound 379, (3S,6S)-4-(4-fluoro-5-(4-fluorophenyl)isoxazole-3-carbonyl)-3,6-diisobutylpiperazin-2-one] | 210 nM | > 10000 nM |
| CC(C)C[C@H]1C(=O)N[C@@H](c2ccccc2F)CN1C(=O)c1noc(-c2ccc(F)cc2)c1F [Compound 380, (3S,6S)-4-(4-fluoro-5-(4-fluorophenyl)isoxazole-3-carbonyl)-6-(2-fluorophenyl)-3-isobutylpiperazin-2-one] | 180 nM | > 10000 nM |
| CC(C)C[C@H]1C(=O)N[C@@H](C2CCCC2)CN1C(=O)c1noc(-c2ccc(F)cc2)c1F [Compound 381, (3S,6S)-6-cyclopentyl-4-(4-fluoro-5-(4-fluorophenyl)isoxazole-3-carbonyl)-3-isobutylpiperazin-2-one] | 250 nM | > 10000 nM |
| CC(C)C[C@H]1C(=O)N[C@@H](C2CCCCC2)CN1C(=O)c1noc(-c2ccc(F)cc2)c1F [Compound 382, (3S,6S)-6-cyclohexyl-4-(4-fluoro-5-(4-fluorophenyl)isoxazole-3-carbonyl)-3-isobutylpiperazin-2-one] | 370 nM | > 10000 nM |
| CC(C)C[C@H]1CN(C(=O)c2noc(-c3ccc(F)cc3F)c2F)[C@@H](CC(C)C)C(=O)N1 [Compound 383, (3S,6S)-4-(5-(2,4-difluorophenyl)-4-fluoroisoxazole-3-carbonyl)-3,6-diisobutyl-piperazin-2-one] | 710 nM | > 10000 nM |
| CC(C)C[C@H]1C(=O)N[C@@H](c2ccccc2)CN1C(=O)c1noc(-c2ccc(F)cc2F)c1F [Compound 385, (3S,6S)-4-(5-(2,4-difluorophenyl)-4-fluoroisoxazole-3-carbonyl)-3-isobutyl-6-phenylpiperazin-2-one] | 500 nM | > 10000 nM |
| CC(C)C[C@H]1C(=O)N[C@@H](c2ccccc2F)CN1C(=O)c1noc(-c2ccc(F)cc2F)c1F [Compound 386, (3S,6S)-4-(5-(2,4-difluorophenyl)-4-fluoroisoxazole-3-carbonyl)-6-(2-fluorophenyl)-3-isobutylpiperazin-2-one] | 570 nM | > 10000 nM |
| CCC[C@H]1CN(C(=O)c2noc(-c3ccc(F)cc3F)c2F)[C@@H](CC(C)C)C(=O)N1 [Compound 387, (3S,6S)-4-(5-(2,4-difluorophenyl)-4-fluoroisoxazole-3-carbonyl)-3-isobutyl-6-propylpiperazin-2-one] | 260 nM | > 10000 nM |
| CC(C)C[C@H]1C(=O)N[C@@H](C2CCCC2)CN1C(=O)c1noc(-c2ccc(F)cc2F)c1F [Compound 388, (3S,6S)-6-cyclopentyl-4-(5-(2,4-difluorophenyl)-4-fluoroisoxazole-3-carbonyl)-3-isobutylpiperazin-2-ono] | 670 nM | > 10000 nM |
| CC(C)C[C@H]1C(=O)N[C@@H](C2CCCCC2)CN1C(=O)c1noc(-c2ccc(F)cc2F)c1F [Compound 389, (3S,6S)-6-cyclohexyl-4-(5-(2,4-difluorophenyl)-4-fluoroisoxazole-3-carbonyl)-3-isobutylpiperazin-2-one] | 1450 nM | > 10000 nM |
| CC(C)C[C@H]1C(=O)N[C@@H](c2ccccc2)CN1C(=O)c1noc(-c2ccc(F)c(F)c2)c1F [Compound 390, (3S,6S)-4-(5-(3,4-difluorophenyl)-4-fluoroisoxazole-3-carbonyl)-3-isobutyl-6-phenylpiperazin-2-one] | 2050 nM | > 10000 nM |
| CC(C)C[C@H]1C(=O)N[C@@H](c2ccccc2F)CN1C(=O)c1noc(-c2ccc(F)c(F)c2)c1F [Compound 392, (3S,6S)-4-(5-(3,4-difluorophenyl)-4-fluoroisoxazole-3-carbonyl)-6-(2-fluorophenyl)-3-isobutylpiperazin-2-one] | 1910 nM | > 10000 nM |
| CCC[C@H]1CN(C(=O)c2noc(-c3ccc(F)c(F)c3)c2F)[C@@H](CC(C)C)C(=O)N1 [Compound 393, (3S,6S)-4-(5-(3,4-difluorophenyl)-4-fluoroisoxazole-3-carbonyl)-3-isobutyl-6-propylpiperazin-2-one] | 260 nM | > 10000 nM |
| CC(C)C[C@H]1CN(C(=O)c2noc(-c3ccc(F)c(F)c3)c2F)[C@@H](CC(C)C)C(=O)N1 [Compound 394, (3S,6S)-4-(5-(3,4-difluorophenyl)-4-fluoroisoxazole-3-carbonyl)-3,6-diisobutyl-piperazin-2-one] | 660 nM | > 10000 nM |
| CC(C)C[C@H]1C(=O)N[C@@H](C2CCCC2)CN1C(=O)c1noc(-c2ccc(F)c(F)c2)c1F [Compound 395, (3S,6S)-6-cyclopentyl-4-(5-(3,4-difluorophenyl)-4-fluoroisoxazole-3-carbonyl)-3-isobutylpiperazin-2-one] | 1020 nM | > 10000 nM |
| CC(C)C[C@H]1C(=O)N[C@@H](C2CCCCC2)CN1C(=O)c1noc(-c2ccc(F)c(F)c2)c1F [Compound 396, (3S,6S)-6-cyclohexyl-4-(5-(3,4-difluorophenyl)-4-fluoroisoxazole-3-carbonyl)-3-isobutylpiperazin-2-one] | 1820 nM | > 10000 nM |
| CCC[C@H]1C(=O)N[C@@H](c2ccccc2)CN1C(=O)c1cc(-c2ccc(F)cc2)on1 [Compound 397, (3S,6S)-4-(5-(4-fluorophenyl)isoxazole-3-carbonyl)-6-phenyl-3-propylpiperazin-2-one] | 890 nM | > 10000 nM |
| CCC[C@H]1C(=O)N[C@@H](c2ccccc2)CN1C(=O)[C@@H]1C[C@H]1c1ccccc1 [Compound 399, (3S,6S)-6-phenyl-4-((1R,2R)-2-phenylcyclopropanecarbonyl)-3-propylpiperazin-2-one] | 2070 nM | > 10000 nM |
| CC(C)[C@H]1C(=O)N[C@@H](c2ccccc2)CN1C(=O)c1cc(-c2ccc(F)cc2)on1 [Compound 400, (3S,6S)-4-(5-(4-fluorophenyl)isoxazole-3-carbonyl)-3-isopropyl-6-phenylpiperazin-2-one] | 970 nM | > 10000 nM |
